The record followed here is patent US7960369B2, “Receptor function regulator” (Takeda Pharmaceutical Company Limited, priority 2002, dated 2011).

Each structure is given as a SMILES string.

Assay [1] deals with mouse pancreatic β cell line MIN6. The assay can be described thus: Promotion of insulin secretion from MIN6 (insulin immunoassay). The assay is classed as cell-based. As to conditions: MIN6, KRBH with 22 mM glucose, 90 min. The procedure: (§1) Mouse pancreatic β cell line MIN6 cultured in a flask was detached with PBS containing 2.5 mM EDTA, and seeded and incubated in a 96 well plate for 2 days. The medium used was obtained by adding 15% fetal bovine serum (ThermoTrace), […] 2-mercaptoethanol (Invitrogen), 20 mM HEPES pH 7.3, 100 U/ml penicillin and 100 μg/ml streptomycin to Dulbecco's Modified Eagle Medium (DMEM, Invitrogen) containing 4.5 g/l of glucose. The cells were washed twice with modified Krebs-Ringer bicarbonate buffer (KRBH, 116 mM NaCl, 4.7 mM KCl, 1.2 mM KH2PO4, 1.2 mM MgSO4, 2.5 mM CaCl2, 25 mM NaHCO3, 24 mM HEPES pH 7.3) and preincubated at 37° C. under 5% CO2 conditions for 30 min. Fatty acid diluted and prepared with a buffer obtained by adding 22 mM glucose to the above-mentioned KRBH was added to the cell after preincubation and the cells were incubated at 37° C. under 5% CO2 conditions for 90 min. After incubation, the cell supernatant was recovered and cryopreserved. The insulin content of the supernatant was measured using a commercially available insulin immunoassay kit (Amersham Pharmacia Biotech).
as §1, with “(KBH,” for “(KRBH,”, “The compound” for “Fatty acid”

The test system of another assay is Male SD rats. The assay can be described thus: In vivo insulin secretion promoting effect and hypoglycemic action, oral glucose tolerance test. Set-up: species or system rat. As to conditions: 30 mg/kg oral, glucose 2 g/kg oral 30 min after administration, Williams test p<=0.025. The procedure:
Male SD rats (CLEA Japan, Inc, 7-week-old) were fasted for one day, and divided into groups (6 per group) based on blood glucose level and body weight. A suspension of the compound of Example 41 in 0.5% methyl cellulose was orally administered at the dose of 30 mg/kg and glucose (2 g/kg) was orally loaded at 30 min after administration. Only 0.5% methyl cellulose was administered to the control group, and similarly loaded with glucose. Plasma was taken before glucose tolerance test, and 7, 30 and 60 minutes after glucose tolerance test, and the blood glucose level and insulin concentration were measured. The blood glucose level was measured by HITACHI autoanalyzer 7070, and insulin was measured by radioimmunoassay ([^125L] Sionoria insulin, Shionogi & Co., Ltd.).

The next assay concerns the target T1, human GPR40 (Homo sapiens, UniProt O14842).
T1 construct: expressed in transfected cells; host or cells: CHO cell line CHO-hGPR40 No. 104 (pAKKO-111 vector)
The assay can be described thus: Effect of regulation of GPR40 receptor function (agonistic effect), intracellular calcium by FLIPR. The assay is classed as cell-based. As to conditions: CHO cell line (No. 104) expressing human GPR40, fluorescence intensity at 30 sec after start of reaction. The procedure:
CHO cell line (No. 104) made to express human GPR40 was diluted such that 3×10^4 cells/100 μL were contained, dispensed to a black walled 96-well plate (Costar) at 100 μL per well, and incubated overnight in a CO2 incubator. The changes in the intracellular calcium concentration were measured using FLIPR (Molecular Device). The method is described in the following.
Fluo-3AM (DOJIN) (50 μg) was dissolved in 21 μl DMSO (DOJIN), and an equal amount of 20% pluronic acid (Molecular Probes) was added and mixed, and the mixture was added to 10.6 ml of an assay buffer [prepared by adding 20 ml of 1M HEPES (pH 7.4) (DOJIN) to 1 L of HBSS (Invitrogen), and adding a mixed solution (10 ml) obtained by dissolving probenecid (Sigma) (710 mg) in 1N NaOH (5 ml) and adding and mixing with the above-mentioned HBSS/HEPES solution (5 ml)] supplemented with 105 μl of fetal calf serum to give a fluorescence dye solution. The medium in the cell plate was removed, a fluorescence dye solution was immediately dispensed at 100 μl per well, and incubated in a CO2 incubator for 1 hr to incorporate fluorescence dye into the cell. The incubated cells were washed with the above-mentioned assay buffer. The compound to be added to the cell was diluted with the assay buffer to each concentration and dispensed to a test sample plate. After the above-mentioned pretreatment, changes in the intracellular calcium concentration after addition of the compound was measured by FLIPR, and the agonistic effect was examined. EC50 value was calculated from a dose response curve based on the changes in the fluorescence intensity value at 30 sec after the start of the reaction.
For orientation: Calcium assays in cells follow changes in intracellular calcium, usually with a dye or a luminescent sensor.

T1 sequence (O14842 whole entry): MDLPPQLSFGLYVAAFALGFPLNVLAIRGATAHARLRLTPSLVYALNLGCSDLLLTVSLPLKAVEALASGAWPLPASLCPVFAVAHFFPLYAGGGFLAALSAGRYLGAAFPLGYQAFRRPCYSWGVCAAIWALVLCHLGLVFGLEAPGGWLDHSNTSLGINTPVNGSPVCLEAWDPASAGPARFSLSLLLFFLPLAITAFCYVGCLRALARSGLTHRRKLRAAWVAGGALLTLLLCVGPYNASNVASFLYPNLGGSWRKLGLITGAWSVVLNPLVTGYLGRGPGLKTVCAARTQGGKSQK

`O=C(O)CCc1ccc(O[C@@H]2CCc3ccccc32)cc1` [Example 41, (R)-4-[(2,3-dihydro-1H-inden-1-yl)oxy]benzenepropanoic acid]: in assay [1], the “insulin secretion enhancing activity” value is “significant insulin secretion enhancing activity”. Moreover, the “increase in insulin versus control group” value in the assay with Male SD rats (at 7 minutes after glucose tolerance test) is “significantly greater increase in insulin”. The “increase in blood glucose level versus control group” value in the assay with Male SD rats (at 30 minutes after glucose tolerance test) is listed as “significantly suppressed increase in the blood glucose level”. Besides, the EC50 on human GPR40 stood at 55 nM.

For orientation: EC50 means the concentration needed to bring the measured effect to its halfway point.
